This is an account of results in patent publication US9573921B2, “Substituted N, N-dimethylaminoalkyl ethers of isoflavanone oximes as H1-receptor antagonists” (POLFARMEX S.A., priority 2013, dated 2017).

In the assay the target is T1, H3 (Cavia porcellus, UniProt Q9JI35).
T1 construct: Whole jejunum segments (2 cm) were prepared and mounted between two platinum electrodes; from tissue; host or cells: guinea pig jejunum (small intestine, 20-50 cm proximal to the ileocaecal valve)
Kind of assay: H3 antagonistic effects in vitro, electrically stimulated guinea pig jejunum, versus (R)-α-methylhistamine. It counts as cell-based. The following applies: (R)-α-methylhistamine as H3-agonist, pyrilamine 1·10^-5 mol/L present, Schild regression, read-out: pA2 (H3-antagonistic activity) (converted). As to the method: Selected compounds were tested for H3 antagonistic effects in vitro, following standard methods, using the guinea pig ileum (R. C. Vollinga, O. P. Zuiderveld, H. Scheerens, A. Bast, H. Timmerman, Meth. Find. Exp. Cli. Pharmacol. 1992, 105, 747-751). Male guinea pigs weighing 300-400 g were sacrificed by a blow on the head. A portion of the small intestine, 20-50 cm proximal to the ileocaecal valve (jejunum), was removed and placed in Krebs buffer (composition (mM) NaCl 118; KCl 5.6; MgSO4 1.18; CaCl2 2.5; NaH2PO4 1.28; NaHCO3 25; glucose 5.5 and indomethacin (1 10^−6 mol/L)). […] Contractions were recorded isotonically under 1.0 g tension with Hugo Sachs Hebel-Messvorsatz (T1-2)/HF-modem (Hugo Sachs Electronik, Hugstetten, Germany) connected to a pen recorder. […] After 30 min of stimulation, five minutes before adding (R)-α-methylhistamine, pyrilamine (1.10^−5 mol/L concentration in organ bath) was added, and then cumulative concentration-response curves (half-log increments) of (R)-α-methylhistamine, H3-agonist, were recorded until no further change in response was found. Five minutes before adding the tested compounds, the pyrilamine (1 10^−5 mol/L concentration in organ bath) was added, and after 20 minutes cumulative concentration-response curves (half-log increments) of (R)-α-methylhistamine, H3-agonist, were recorded until no further change in response was found. […]

T1 sequence (Q9JI35 whole entry): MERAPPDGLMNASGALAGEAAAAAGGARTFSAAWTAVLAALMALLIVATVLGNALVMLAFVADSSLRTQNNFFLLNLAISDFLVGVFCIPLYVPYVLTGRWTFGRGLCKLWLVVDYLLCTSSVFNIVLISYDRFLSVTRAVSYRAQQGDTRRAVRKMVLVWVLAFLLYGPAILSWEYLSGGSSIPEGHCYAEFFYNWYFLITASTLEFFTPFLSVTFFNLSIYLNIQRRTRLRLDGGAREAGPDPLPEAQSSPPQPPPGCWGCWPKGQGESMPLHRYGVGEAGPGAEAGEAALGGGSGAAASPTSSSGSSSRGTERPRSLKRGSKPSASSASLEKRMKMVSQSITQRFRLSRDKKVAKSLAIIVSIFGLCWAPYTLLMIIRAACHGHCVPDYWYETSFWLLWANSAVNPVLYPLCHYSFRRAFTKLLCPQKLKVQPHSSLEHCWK

In the case of `S=C(NC1CCCCC1)N1CCC(c2cnc[nH]2)CC1` [thioperamide], the Kb is 2.14 nM.
